Reference: patent publication US12110289B2, “Heterocyclic compounds, preparation methods and uses thereof” (InventisBio Co., Ltd., priority 2020, dated 2024)
Where two headings read alike, the source gives them in different places.

Assays:
[1] = test system: Lung cancer cell line NCI-H358 containing KRas G12C mutation; assay: Assay for cell proliferation (Cell-titer Glo, 5 days); assay type: cell-based, human; conditions: for IC50: Homo sapiens, NCI-H358, 120 h, read-out: IC50 (nM), Inhibition of NCI-H358 Cell Proliferation
Summary of the method: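 NCI-H358 (KRas G12C) cells, 2000 per well, attached overnight at 37 °C, 5% CO2, then treated with compound for 5 days at 0.5% DMSO final. Proliferation measured by CellTiter-Glo luminescence after 10 min at RT.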

[2] = test system: pooled human hepatocytes; assay: Human hepatocyte clearance study; assay type: in vitro ADME; conditions: for Human Hepatocyte Remaining Percentage @ 120 min (%): working cell density 2 × 10^6 viable cells/mL
Description: (§1) The in vitro human hepatocyte clearance of compounds described here was studied using pooled human hepatocytes purchased from BioreclamationIVT (Westbury, NY, Cat #X008001, Lot #TQJ). The assay was conducted according to manufacturer's instruction. Briefly, 10 mM stock solutions of test compounds and positive control (Verapamil) were prepared in 100% DMSO. Thawing media (50 mL) used in the study consists of 31 mL Williams E medium (GIBCO Cat #12551-032), 15 mL isotonic percoll (GE Healthcare Cat #17-0891-09), 500 uL 100× GlutaMax (GIBCO Cat #35050), 750 uL HEPES (GIBCO Cat #15630-080), 2.5 mL FBS (Corning Cat #35-076-CVR), 50 uL human insulin (GIBCO Cat #12585-014) and 5 uL dexamethasone (NICPBP). Incubation media is made of Williams E medium supplemented with 1× GlutaMax. Both thawing medium and incubation medium (serum-free) were placed in a 37° C. water bath for at least 15 minutes prior to use. Compound stock solutions were diluted to 100 μM by combining 198 μL of 50% acetonitrile/50% water and 2 μL of 10 mM stock solution. Verapamil was use as positive control in the assay. Vials of cryopreserved hepatocytes were removed from storage and thawed in a 37° C. water bath with gentle shaking. Contents of the vial were poured into the 50 mL thawing medium conical tube. Vials were centrifuged at 100 g for 10 minutes at room temperature. […] […] […] The boiled hepatocytes were used to prepare negative samples. Aliquots of 198 μL hepatocytes were dispensed into each well of a 96-well non-coated plate. The plate was placed in the incubator on an orbital shaker at 500 rpm for approximately 10 minutes. Aliquots of 2 μL of the 100 μM test compound or positive control were added into respective wells of the non-coated 96-well plate to start the reaction. This assay was performed in duplicate. The plate was incubated in the incubator on an orbital shaker at 500 rpm for the designated time points. Twenty-five microliter of contents were transferred and mixed with 6 volumes (150 μL) of cold acetonitrile with IS (200 nM imipramine, 200 nM labetalol and 200 nM diclofenac) to terminate the reaction at time points of 0, 15, 30, 60, 90 and 120 minutes. Samples were centrifuged at 3,220 g for 25 minutes and aliquots of 150 μL of the supernatants were used for LC-MS/MS analysis. For data analysis, all calculations were carried out using Microsoft Excel. Peak areas were determined from extracted ion chromatograms. The in vitro half-life (t1/2) of parent compound was determined by regression analysis of the percent parent disappearance vs. time curve. […] Scaling factors for in vivo intrinsic clearance prediction using human hepatocytes are listed as: liver weight (g liver/kg body weight): 25.7; hepatocyte concentration (10^6 cells/g liver): 99; scaling factor: 2544.3.

[3] = Human hepatocyte clearance study; assay type: in vitro ADME; conditions: human, pooled cryopreserved human hepatocytes (suspension), working cell density 2 × 10^6 viable cells/mL; for hepatocyte CLint at 1 µM: read-out: Human In vitro Clint (μl/min/10^6 cells); for half-life at 1 µM: read-out: Human In vitro T1/2; for CLint scaled at 1 µM: read-out: Human Scale-up Clint
Description: as §1

[4] = test system: NCI-H358 xenograft; assay: NSCLC H358 xenograft model, tumor volume; assay type: in vivo, BALB/c nude mice
Description: (§2) All the procedures related to animal handling, care and the treatment in this study were performed according to the guidelines approved by the Institutional Animal Care and Use Committee (IACUC) of SIPPER B&K following the guidance of the Association for Assessment and Accreditation of Laboratory Animal Care (AAALAC). At the time of routine monitoring, the animals were checked for any effects of tumor growth on normal behavior such as mobility, food and water consumption (by looking only), body weight gain/loss (body weights were measured twice weekly), eye/hair matting and any other abnormal effect. Death and observed clinical signs were recorded on the basis of the numbers of animals within each subset.
(§3) The NCI-H358, SW837, NCI-H2122 tumor cells were purchased from the American Type Culture Collection (ATCC). Cells were maintained in vitro as monolayer cultured in RPMI-1640 or DMEM medium supplemented with 10% fetal bovine serum, 50 IU/ml penicillin/streptomycin (GIBCO) at 37° C. in an atmosphere of 5% CO2 in air. The tumor cells were routinely sub cultured twice weekly by trypsin-EDTA treatment. The cells growing in an exponential growth phase were harvested and counted for tumor inoculation.
(§4) For tumor bearing models, female 6- to 8-week-old athymic BALB/c nude mice were used for human cancer cell lines. Each mouse was inoculated subcutaneously at the right flank with tumor cells (10×10^6) in 0.1 ml of PBS. The treatments were started when the average tumor size reached approximately 200-250 mm^3. Carboplatin, Cisplatin was injected twice a week by i.p. Vehicles and other test articles were given orally as a suspension by gavage once daily during the study or treatment period.
(§5) Tumor volume was calculated by measuring two perpendicular diameters using the following formula: (L×W 2)/2 in which L and W refer to the length and width tumor diameter, respectively. Results are expressed as mean and standard deviation of the mean.

[5] = Rat PK study, single i.g. dose; assay type: in vivo; conditions: female, SD, plasma, PO, 10 mg/kg
Description: The pharmacokinetic (PK) profile of compounds following single i.g in SD rat obtained from […] Laboratory Animal Co., LTD of Shanghai was determined. Three female rats of weight around 220 g were used. Compounds were prepared at 1 mg/ml with the formulation of 10% DMSO+10% solutol HS15+80% (10% HPβCD in water). Blood samples (0.2 mL) were collected at 0 h (pre-dose) and 0.25, 0.5, 1, 2, 4, 8, 24 h time points after administration of compounds at the dose of 10 mg/kg. The collected blood samples were centrifuged without delay and the plasma was separated and transferred into tubes before storage at -70° C. prior to analysis. Aliquots of the plasma unknowns, blank and calibration standards were placed in 1.5 mL tubes and mixed with acetonitrile/methanol (1/1, v/v) containing IS. After vortexing for 5 min, each sample was centrifuged at 14000 rpm at 4° C. for 10 min. The supernatant were injected into the LC-MS/MS system. […] Eluates were analyzed using an API4000 Q-Trap mass spectrometer with a TurboIonSpray interface. Chromatographic separation was done with a mobile phase composed of water with 0.1% formic acid (solution A) and acetonitrile with 0.1% formic acid (solution B). The mobile phase was delivered at a flow rate of 0.6 mL/min, using a stepwise gradient elution program. To improve the sensitivity of the test compound screening, a MRM method in positive electrospray ionization mode was employed. Mass spectrometry data was acquired and analyzed using AB Sciex Analyst version 1.6.2 software. The pharmacokinetic parameters were derived using standard noncompartmental methods with Phoenix WinNonLin Professional Version 8.1.

[6] = test system: SW837 xenograft; assay: Colorectal adenocarcinoma SW837 xenograft model, tumor volume; assay type: in vivo, BALB/c nude mice
Description: as §2, §3, §4, §5

Compound | IC50 ([1]; NCI-H358, 5 days, Cell-titer Glo) [nM] | Human Hepatocyte Remaining Percentage @ 120 min (%) [2] [%] | hepatocyte CLint at 1 µM [3] [µL/min/1e6 cells] | half-life at 1 µM [3] [h] | CLint scaled at 1 µM [3] [mL/min/kg] | reduction of tumor volume, combined treatment vs either agent alone ([4]; Compound 145 at 5 mg/kg combined with carboplatin at 30 mg/kg, FIG. 4) | AUC(0-t) ([5]; read-out: Rat PO (10 mpk) AUC last) [µM·h] | Cmax ([5]; read-out: Rat PO (10 mpk) Cmax) [nM] | bioavailability ([5]; read-out: Rat PO (10 mpk) F %) [%] | potency in inhibiting KRAS G12C compared with corresponding isopropyl analogs [1] | IC50 [1] [nM] | fold more potent: 2-amino-6-fluoro-phenyl compound vs. corresponding 2-fluoro-phenyl compound at R8 ([1]; NCI-H358 IC50 comparison) | human hepatocyte clearance profile compared to control compounds [2] | reducing tumor volume compared with AMG510 ([4]; 30 mg/kg oral once daily vs AMG510 at 30 mg/kg, FIG. 2) | reducing tumor volume compared with AMG510 ([6]; 60 mg/kg oral once daily vs AMG510 at 60 mg/kg, FIG. 1) | reduction of tumor volume, combined treatment vs either agent alone ([6]; Compound 44 at 30 mg/kg combined with trametinib at 1 mg/kg, FIG. 6)
C=CC(=O)N1C[C@H](C)N(c2nc(=O)n(-c3c(F)cc4c(ncn4C)c3C(C)C)c3nc(-c4c(N)cccc4F)c(F)cc23)C[C@H]1C (atropisomer, axis not shown) [Compound 145] | 1.4 | 82.9 | 1 | 11.5 | 2.6 | much better reduction of tumor volume |  |  |  |  |  |  |  |  |  | 
C=CC(=O)N1C[C@H](C)N(c2nc(=O)n(-c3c(C4CC4)ncnc3C3CC3)c3nc(-c4c(N)cccc4F)c(F)cc23)C[C@H]1C [Compound 44] |  | 61.7 | 4 | 2.87 | 10.2 |  | 4.3 | 1380 | 71 | better potency | 2.1 | about 19 × | better human hepatocyte clearance profile | more effective than AMG510 | more effective than AMG510 | much better reduction of tumor volume
